Measured values from US8278263B2, “Method of regulating mammalian target-of-rapamycin activity by interaction between phospholipase D and raptor” (Postech Academy-Industry Foundation, priority 2006, dated 2012).

Tests used:
[1] = tested on: binding between PLD2 and raptor; experiment: Co-IP of HA-raptor/PLD2 in HEK293 cells after leucine treatment; format: cell-based, human; conditions: HA-raptorwt/PLD2wt transfected HEK293 cells; leucine treatment after leucine deprivation
Protocol: (§1) After harvesting COS7 cells, total extracts were prepared by brief sonication in ice-cold lysis buffer (40 mM HEPES pH7.5, 120 mM NaCl, 1 mM EDTA, 10 mM pyrophosphate, 10 mM glycerophosphate, 50 mM NaF, 1.5 mM Na3VO4, 0.5% CHAPS, 1 mM PMSF, protease inhibitor cocktails). Clarified extracts were mixed with 2 μg of the respective antibodies. Then protein A-Sepharose beads were added to isolate the antibody complex. After four washings with lysis buffer, the final immunoprecipitates were washed once with wash buffer (50 mM HEPES pH7.5, 150 mM NaCl), and then subjected to SDS-PAGE using Hyperfilm (Amersham Pharmacia Biotech), nitrocellulose membranes (Watmann), Power supply (Amersham Pharmacia Biotech), Electrophoretic Transfer unit (Hoefer Scientific Instruments), and ECL™ (Amersham Pharmacia Biotech).
Either HA-raptor^wt/PLD2^wt was transfected into HEK293 cells, and the cells were subjected to leucine deprivation. Co-IP after leucine treatment was followed by Western blot analysis. Importantly, the interaction between Rheb and PLD2 was also regulated by nutrient levels such that this interaction was stabilized under high nutrient conditions and weakened under low nutrient conditions, which allowed a nutrient-dependent mTOR complex composed of mTOR, raptor, PLD2, and Rheb to be identified.

[2] = tested on: interaction between PLD2 and mTOR; experiment: Co-IP with anti-mTOR antibody of PLD2 and mTOR complex; format: cell-based, human; monkey
Protocol: as §1

[3] = target: T1, PLD2 (Homo sapiens, UniProt O14939); experiment: In vivo PLD assay (PBt formation) in response to nutrient levels; format: cell-based; conditions: PLD2wt transfected cells; leucine-free vs leucine-added media; 0.4% 1-butanol
T1 construct: showing a schematic view of PLD2 N-terminal deleted fragments versus whole PLD2; expressed in transfected cells
Protocol: In vivo PLD activity was assayed by measuring the formation of phosphatidyl-butanol as described in “Lee, J. S., Kim, J. H., Jang, I. H., Kim, H. S., Han, J. M., Kazlauskas, A., Yagaisawa, H., Suh, P. G., Ryu, S. H. J. Cell Sci. 118 (2005) 4405,” which is hereby incorporated by reference. In brief, cells were loaded with [^3H]myristic acid (2 μCi/ml) for 8 hrs and then washed twice with DMEM. Labeled cells were incubated with 0.4% butanol for 10 min to measure basal PLD activity. Total lipids were extracted with 1.2 ml of methanol:1 M NaCl:chloroform (1:1:1 by volume) and then separated by thin-layer chromatography on silica gel plates. The amount of [^3H]phosphatidyl-butanol formed was expressed as a percentage of total [^3H]lipid to account for cell labeling efficiency differences.

[4] = tested on: S6K1
Protocol: Until now, the function of PLD2 in nutrient signaling has not been proposed. To this end, the importance of PLD2 in nutrient signaling was tested. […] PLD2^wt was transfected and allowed to express for 24 hr.

[5] = tested on: mTOR-raptor interaction; experiment: Co-IP analysis of the mTOR-raptor interaction; format: cell-based, monkey; conditions: COS7 cells
[6] = tested on: phosphorylation of S6K1; experiment: Mitogen-dependent phosphorylation of S6K1 in siRNA-transfected COS7 cells; format: cell-based, monkey; conditions: siRNA knockdown, 20% BCS
Protocol: The indicated siRNAs were transfected into COS7 cells, and 36 hrs later, cells were deprived of serum for 24 hrs. 20% of BCS was then treated and the resulting lysates were subjected to SDS-PAGE.

[7] = tested on: phosphorylations of S6K1 and 4EBP1; experiment: Phosphorylation of S6K1 and 4EBP1 after isozyme-specific PLD siRNA knockdown (western blot); format: cell-based, human; monkey
Excerpt: Pairs of 21-nucleotide sense and antisense RNA oligomers were synthesized and annealed by Dharmacon Research, Inc. (Lafayette, Colo.). The oligonucleotides used for PLD2 were: sense, 5′-AAGAGGUGGCUGGUGGUGAAG-3′ (SEQ ID NO: 9) and antisense, 5′-CUUCACCACCAGCCACCUCUU-3′ (SEQ ID NO: 10), which correspond to human PLD2 coding nucleotides 703-723. The oligonucleotides used for PLD1 were: sense, 5′-AAGGUGGGACGACAAUGAGCA-3′ (SEQ ID NO: 11), and antisense, 5′-UGCUCAUUGUCGUCCCACCUU-3′ (SEQ ID NO: 12), which correspond to human PLD1a coding nucleotides 1455-1475. All siRNA sequences were subjected to BLAST in the NCBI database and complete matches were only found for PLD2 sequences. Luciferase GL2 duplex was purchased from Dharmacon Research, Inc. and was used as a negative control. For add-back experiment for PLD2 silencing, three residues of human PLD2 cDNA (nucleotides 703-723 of PLD2; […]; SEQ ID NO: 13) are substituted to […] for addback mutants of PLD2^wt (Kim, J. H., Kim, J. H., Ohba, M., Suh, P. G., Ryu, S. H. Mol. Cell. Biol. 25 (2005) 3194, which is hereby incorporated by reference). This mutation is silencing mutations. This gene is subcloned into mammalian expression vector pcDNA3.1 (Invitrogen) and digested with restriction enzymes KpnI and XbaI. These mutations are confirmed through nucleotide sequence analysis. […]

[8] = tested on: S6K1 phosphorylation; experiment: Exogenous PA rescue of mTOR signaling in PLD knocked-down cells (SDS-PAGE/western blot); format: cell-based, human; monkey
Protocol: Next, another experiment was conducted to test whether exogenous PA can rescue mTOR signal abrogation in PLD2-knocked-down cells. HEK293 and COS7 cells were transfected with the indicated siRNAs using lipofectamine. After 36 hrs, cells were deprived of serum for 24 hrs. 100 μM of C-6 PA solubilized in DW was then treated for 30 min. Resulting lysates were subject to SDS-PAGE.
The inventor reasoned that if the role of PLD2 in mTOR activation is solely that of PA generation, then the exogenous addition of PA should completely rescue mTOR signaling despite PLD2 expression.

T1 sequence (O14939 whole entry R172C/T577I, the tested form may be a part): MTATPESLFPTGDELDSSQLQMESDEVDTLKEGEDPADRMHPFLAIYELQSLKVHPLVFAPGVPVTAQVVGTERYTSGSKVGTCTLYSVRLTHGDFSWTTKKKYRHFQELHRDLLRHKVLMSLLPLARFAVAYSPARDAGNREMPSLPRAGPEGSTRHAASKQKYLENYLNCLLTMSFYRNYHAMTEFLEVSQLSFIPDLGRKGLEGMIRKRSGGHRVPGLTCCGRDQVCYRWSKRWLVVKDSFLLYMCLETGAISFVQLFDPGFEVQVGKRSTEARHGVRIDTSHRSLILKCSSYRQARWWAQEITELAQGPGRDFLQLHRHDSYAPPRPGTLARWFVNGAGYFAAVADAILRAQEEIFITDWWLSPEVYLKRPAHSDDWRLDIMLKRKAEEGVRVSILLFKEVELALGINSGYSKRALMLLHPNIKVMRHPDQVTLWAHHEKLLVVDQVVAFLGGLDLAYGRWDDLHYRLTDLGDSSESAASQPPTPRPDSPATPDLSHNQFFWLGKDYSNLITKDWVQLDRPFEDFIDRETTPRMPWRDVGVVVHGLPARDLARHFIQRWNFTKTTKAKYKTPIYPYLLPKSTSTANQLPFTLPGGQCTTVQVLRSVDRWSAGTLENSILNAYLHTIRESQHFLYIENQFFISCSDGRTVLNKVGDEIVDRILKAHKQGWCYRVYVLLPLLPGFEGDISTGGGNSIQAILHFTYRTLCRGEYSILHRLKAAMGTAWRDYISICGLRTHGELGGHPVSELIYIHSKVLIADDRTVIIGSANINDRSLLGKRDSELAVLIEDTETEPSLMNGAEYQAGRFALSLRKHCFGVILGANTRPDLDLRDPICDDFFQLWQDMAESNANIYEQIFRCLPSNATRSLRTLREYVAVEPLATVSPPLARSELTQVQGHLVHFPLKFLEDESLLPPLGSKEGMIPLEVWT

Which “binding between PLD2 and raptor” value [1] does the source give for `CC(C)C[C@H](N)C(=O)O` [leucine] here?
Its value is “enhanced binding”.

And the “interaction between endogenous PLD2 and endogenous mTOR complex” value ([2]; leucine treatment in leucine-deprived COS7 and HEK293 cells)?
The value was “increased”.

What about the “PLD2 activity (PBt formation)” value [3] of the same molecule?
The value was “reversibly regulated”.

What does the source list for 1-butanol?
stimulatory effect of leucine on S6K1 [4]: significantly reduced; modulation of the mTOR-raptor interaction [5]: neither reducing PA generation with 1-butanol nor adding PA modulates

For `CO[C@H]1C[C@@H]2CC[C@@H](C)[C@@](O)(O2)C(=O)C(=O)N2CCCC[C@H]2C(=O)O[C@H]([C@H](C)C[C@@H]2CC[C@@H](O)[C@H](OC)C2)CC(=O)[C@H](C)/C=C(\C)[C@@H](O)[C@@H](OC)C(=O)[C@H](C)C[C@H](C)/C=C/C=C/C=C/1C` [rapamycin], which “effect on the interaction between PLD2 and mTOR” value ([2]; mTOR inhibition by rapamycin) is on record?
Its value is “no effect”.

Which results are given for “PLD2 siRNA: 21-nt siRNA duplex SEQ ID NO: 9/10, human PLD2 coding nucleotides 703-723 (chain 1 AAGAGGUGGCUGGUGGUGAAG; chain 2 CUUCACCACCAGCCACCUCUU; RNA, backbone not given here)”?
mitogen-dependent phosphorylation of S6K1 [6]: profoundly reduced; phosphorylations of S6K1 and 4EBP1 ([7]; siRNA knockdown, HEK293, OVCAR-3 and COS7 cells, serum-deprived 24 hrs, compared with PLD1 knockdown): dramatically reduced

With `CCCCCC(=O)OC[C@H](COP(=O)(O)O)OC(=O)CCCCC` [PA, C-6 phosphatidic acid] as the molecule, how does the “rescue of silencing effect of PLD1 on mTOR signaling” value ([8]; PLD1 silencing, PA treatment) read?
Its value is “completely rescued”.

What about the “S6K1 phosphorylation triggered by exogenous PA” value ([8]; PLD2-knocked-down HEK293 and COS7 cells, 100 μM C-6 PA, 30 min) of the same molecule?
Its value is “could not trigger S6K1 phosphorylation”.

And the “rescue of PLD2 effect on mTOR signaling” value ([8]; PLD2 silencing, exogenous PA treatment)?
Its value is “not rescued”.

What about the “modulation of the mTOR-raptor interaction” value [5] of the same molecule?
The value was “neither reducing PA generation with 1-butanol nor adding PA modulates”.

Which results are given for “PLD1 siRNA: 21-nt siRNA duplex SEQ ID NO: 11/12, human PLD1a coding nucleotides 1455-1475 (chain 1 AAGGUGGGACGACAAUGAGCA; chain 2 UGCUCAUUGUCGUCCCACCUU; RNA, backbone not given here)”?
mitogen-dependent phosphorylation of S6K1 [6]: only a modest effect; silencing effect on mTOR signaling ([7]; siRNA silencing): modest
